These results are taken from US9670227B2, “Thienopyrimidine derivatives, a process for their preparation and pharmaceutical compositions containing them” (LES LABORATOIRES SERVIER, priority 2013, dated 2017).

One experiment has as its target Mcl-1 protein (UniProtKB primary accession number: Q07820) (Homo sapiens, UniProt Q07820). Put plainly: Inhibition of Mcl-1 by fluorescence polarisation, Method 1. Format: binding. Particulars: fluorescence polarisation test; Method 2 values are underlined in the patent (underlining not visible here); read-out: IC50 (M) Mcl-1 FP. Summed up:
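Fluorescence polarisation competition with an 11-point compound dilution series (final DMSO 5%). Mcl-1 protein at 5 nM and fluorescein-labelled ligand at 1 nM (final) in 10 mM HEPES, 150 mM NaCl, 0.05% Tween 20, pH 7.4.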

The subject of experiment [1] is H929 multiple myeloma tumour line. Nature of the experiment: In vitro cytotoxicity, Microculture Tetrazolium Assay. The following applies: Homo sapiens, NCI-H929, 48 h, H929 cells, 48 hours exposure, MTT; read-out: IC50 (μM) MTT H929. Format: cell-based. The procedure:
The cytotoxicity studies were carried out on the H929 multiple myeloma tumour line.
The cells are distributed onto microplates and exposed to the test compounds for 48 hours.

Mcl-1 protein, sequence (Q07820 whole entry): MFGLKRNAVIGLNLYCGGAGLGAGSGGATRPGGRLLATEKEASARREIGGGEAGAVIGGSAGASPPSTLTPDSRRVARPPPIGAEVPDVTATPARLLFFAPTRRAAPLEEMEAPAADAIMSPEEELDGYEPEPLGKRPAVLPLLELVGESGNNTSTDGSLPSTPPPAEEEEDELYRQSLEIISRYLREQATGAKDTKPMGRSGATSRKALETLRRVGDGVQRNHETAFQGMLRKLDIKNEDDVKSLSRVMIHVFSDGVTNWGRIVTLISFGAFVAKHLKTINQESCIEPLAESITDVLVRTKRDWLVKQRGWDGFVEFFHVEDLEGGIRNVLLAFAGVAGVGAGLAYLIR

On to `COCCn1nncc1COc1ccccc1CC(Oc1ncnc2sc(-c3ccc(F)cc3)c(-c3ccc(OCCN4CCN(C)CC4)c(Cl)c3C)c12)C(=O)O` [Example 97, (2R)-2-{[(5Sa)-5-{3-chloro-2-methyl-4-[2-(4-methylpiperazin-1-yl)ethoxy]phenyl}-6-(4-fluorophenyl)thieno[2,3-d]pyrimidin-4-yl]oxy}-3-(2-{[1-(2-methoxyethyl)-1H-1,2,3-triazol-5-yl]methoxy}phenyl)propanoic acid], for which the IC50 on Mcl-1 protein amounted to 3.3e-09 M; in experiment [1], 0.075 µM.
For `Cc1c(-c2c(-c3ccc(F)cc3)sc3ncnc(OC(Cc4ccccc4OCc4cocn4)C(=O)O)c23)ccc(OCCN2CCN(C)CC2)c1Cl` [Example 98, (2R)-2-{[(5Sa)-5-{3-chloro-2-methyl-4-[2-(4-methylpiperazin-1-yl)ethoxy]phenyl}-6-(4-fluorophenyl)thieno[2,3-d]pyrimidin-4-yl]oxy}-3-[2-(1,3-oxazol-4-ylmethoxy)phenyl]propanoic acid], in that order: 3.3e-07 M and 0.118 µM.
For `Cc1c(-c2c(-c3ccc(F)cc3)sc3ncnc(OC(Cc4ccccc4OCc4ncncc4Br)C(=O)O)c23)ccc(OCCN2CCN(C)CC2)c1Cl` [Example 101, (2R)-3-{2-[(5-bromopyrimidin-4-yl)methoxy]phenyl}-2-{[(5Sa)-5-{3-chloro-2-methyl-4-[2-(4-methylpiperazin-1-yl)ethoxy]phenyl}-6-(4-fluorophenyl)thieno[2,3-d]pyrimidin-4-yl]oxy}propanoic acid], in that order: 8e-09 M and 0.398 µM.
As for `Cc1c(-c2c(-c3ccc(F)cc3)sc3ncnc(OC(Cc4ccccc4OCCF)C(=O)O)c23)ccc(OCCN2CCN(C)CC2)c1Cl` [Example 103, (2R)-2-{[(5Sa)-5-{3-chloro-2-methyl-4-[2-(4-methylpiperazin-1-yl)ethoxy]phenyl}-6-(4-fluorophenyl)thieno[2,3-d]pyrimidin-4-yl]oxy}-3-[2-(2-fluoroethoxy)phenyl]propanoic acid], the IC50 at Mcl-1 protein is 2.4e-08 M; in experiment [1] it was 0.214 µM.
For `COCCOc1ccccc1CC(Oc1ncnc2sc(-c3ccc(F)cc3)c(-c3ccc(OCCN4CCN(C)CC4)c(Cl)c3C)c12)C(=O)O` [Example 104, (2R)-2-{[(5Sa)-5-{3-chloro-2-methyl-4-[2-(4-methylpiperazin-1-yl)ethoxy]phenyl}-6-(4-fluorophenyl)thieno[2,3-d]pyrimidin-4-yl]oxy}-3-[2-(2-methoxyethoxy)phenyl]propanoic acid], in that order: 7.5e-09 M and 0.386 µM.
The matching figures for `COCCOCCOc1ccccc1CC(Oc1ncnc2sc(-c3ccc(F)cc3)c(-c3ccc(OCCN4CCN(C)CC4)c(Cl)c3C)c12)C(=O)O` [Example 105, (2R)-2-{[(5Sa)-5-{3-chloro-2-methyl-4-[2-(4-methylpiperazin-1-yl)ethoxy]phenyl}-6-(4-fluorophenyl)thieno[2,3-d]pyrimidin-4-yl]oxy}-3-{2-[2-(2-methoxyethoxy)ethoxy]phenyl}propanoic acid]: 1.2e-08 M and 0.251 µM.
For `COCCOCCOCCOc1ccccc1CC(Oc1ncnc2sc(-c3ccc(F)cc3)c(-c3ccc(OCCN4CCN(C)CC4)c(Cl)c3C)c12)C(=O)O` [Example 106, (2R)-2-{[(5Sa)-5-{3-chloro-2-methyl-4-[2-(4-methylpiperazin-1-yl)ethoxy]phenyl}-6-(4-fluorophenyl)thieno[2,3-d]pyrimidin-4-yl]oxy}-3-(2-{2-[2-(2-methoxyethoxy)ethoxy]ethoxy}phenyl)propanoic acid], in that order: 1.2e-08 M and 0.195 µM.
Turning to `COc1ccc(-c2nccc(COc3ccccc3CC(Oc3ncnc4sc(-c5ccc(F)cc5)c(-c5ccc(OCCN6CCN(C)CC6)c(Cl)c5C)c34)C(=O)O)n2)cc1` [Example 107, (2R)-2-{[(5Sa)-5-{3-chloro-2-methyl-4-[2-(4-methylpiperazin-1-yl)ethoxy]phenyl}-6-(4-fluorophenyl)thieno[2,3-d]pyrimidin-4-yl]oxy}-3-(2-{[2-(4-methoxyphenyl)pyrimidin-4-yl]methoxy}phenyl)propanoic acid], the IC50 turned out to be 5.3e-09 M at Mcl-1 protein and 0.007 µM in experiment [1].
Consider `Cc1ccc(-c2nccc(COc3ccccc3CC(Oc3ncnc4sc(-c5ccc(F)cc5)c(-c5ccc(OCCN6CCN(C)CC6)c(Cl)c5C)c34)C(=O)O)n2)cn1` [Example 108, (2R)-2-{[(5Sa)-5-{3-chloro-2-methyl-4-[2-(4-methylpiperazin-1-yl)ethoxy]phenyl}-6-(4-fluorophenyl)thieno[2,3-d]pyrimidin-4-yl]oxy}-3-(2-{[2-(6-methylpyridin-3-yl)pyrimidin-4-yl]methoxy}phenyl)propanoic acid], for which the IC50 is 3.5e-09 M on Mcl-1 protein and 0.007 µM in experiment [1].
For `Cc1c(-c2c(-c3ccc(F)cc3)sc3ncnc(OC(Cc4ccccc4OCc4ccnc(-c5ccc(C(F)(F)F)nc5)n4)C(=O)O)c23)ccc(OCCN2CCN(C)CC2)c1Cl` [Example 109, (2R)-2-{[(5Sa)-5-{3-chloro-2-methyl-4-[2-(4-methylpiperazin-1-yl)ethoxy]phenyl}-6-(4-fluorophenyl)thieno[2,3-d]pyrimidin-4-yl]oxy}-3-[2-({2-[6-(trifluoromethyl)pyridin-3-yl]pyrimidin-4-yl}methoxy)phenyl]propanoic acid], the values for the IC50 (on Mcl-1 protein; in experiment [1]) were 8.4e-09 M and 0.108 µM, respectively.
With `Cc1c(-c2c(-c3ccc(F)cc3)sc3ncnc(OC(Cc4ccccc4OCc4ccnc(-c5ccc(Cl)nc5)n4)C(=O)O)c23)ccc(OCCN2CCN(C)CC2)c1Cl` [Example 110, (2R)-2-{[(5Sa)-5-{3-chloro-2-methyl-4-[2-(4-methylpiperazin-1-yl)ethoxy]phenyl}-6-(4-fluorophenyl)thieno[2,3-d]pyrimidin-4-yl]oxy}-3-(2-{[2-(6-chloropyridin-3-yl)pyrimidin-4-yl]methoxy}phenyl)propanoic acid], the IC50 on Mcl-1 protein was 4.3e-09 M; in experiment [1], 0.022 µM.
For `COc1ccc(-c2nccc(COc3ccccc3CC(Oc3ncnc4sc(-c5ccc(F)cc5)c(-c5ccc(OCCN6CCN(C)CC6)c(Cl)c5C)c34)C(=O)O)n2)cn1` [Example 111, (2R)-2-{[(5Sa)-5-{3-chloro-2-methyl-4-[2-(4-methylpiperazin-1-yl)ethoxy]phenyl}-6-(4-fluorophenyl)thieno[2,3-d]pyrimidin-4-yl]oxy}-3-(2-{[2-(6-methoxypyridin-3-yl)pyrimidin-4-yl]methoxy}phenyl)propanoic acid], in that order: 3.3e-09 M and 0.008 µM.
For the compound `COc1cccc(-c2nccc(COc3ccccc3CC(Oc3ncnc4sc(-c5ccc(F)cc5)c(-c5ccc(OCCN6CCN(C)CC6)c(Cl)c5C)c34)C(=O)O)n2)c1` [Example 112, (2R)-2-{[(5Sa)-5-{3-chloro-2-methyl-4-[2-(4-methylpiperazin-1-yl)ethoxy]phenyl}-6-(4-fluorophenyl)thieno[2,3-d]pyrimidin-4-yl]oxy}-3-(2-{[2-(3-methoxyphenyl)pyrimidin-4-yl]methoxy}phenyl)propanoic acid], the IC50 on Mcl-1 protein is 5.6e-09 M; in experiment [1] it was 0.011 µM.
